From patent EP4707280A1, “1,4-CINEOLE DERIVATIVE AND INTERMEDIATE THEREOF, HERBICIDE CONTAINING SAID DERIVATIVE AS ACTIVE INGREDIENT, METHOD FOR USING HERBICIDE, AND METHOD FOR PREPARING AGROCHEMICAL COMPOSITION” (HOKKO CHEMICAL INDUSTRY CO., LTD., priority 2023, dated 2024)

Assays:
Format in all cases: in vivo
Echinochloa crus-galli [1] = experiment: Test Example 4: herbicidal effect test by stem and leaf treatment in upland field; conditions: Echinochloa crus-galli; 120 g per 10 ares; sprayed seven days after sowing, upland soil; 14 days after application; read-out: weed inhibition rate
[2] = test system: Echinochloa crus-galli var. formosensis; experiment: Test Example 6: herbicidal effect test by application during growth period of paddy rice (low dose); conditions: Echinochloa crus-galli; 7.5 g per 10 ares; applied seven days after sowing, flooded pots; 14 days after application; read-out: weed inhibition rate
Method: (§1) The present test was conducted in duplicate for each chemical concentration group, and the weed inhibition rate (%) was determined 14 days after chemical application using the following formula (Math. 1). [formula]
Wagner pots with an area of […] were filled with paddy soil, followed by addition of water and incorporation of chemical fertilizer (N:P:K = 16:16:16), after which puddling was performed. After that, seeds of Echinochloa crus-galli var. formosensis, broad-leaved weeds (Monochoria vaginalis), and Scirpus juncoides were sown at a depth of 0 cm to 1 cm, 30 seeds each. Immediately after sowing, the pots were flooded and a water depth of approximately 3 cm was maintained. Subsequent management was conducted in a glass greenhouse. Seven days after sowing, an emulsifiable concentrate prepared according to Formulation Example 5 using the compound shown below was diluted with water, and a specified amount of the diluted solution was applied by dropper. The amount of the active ingredient to be applied was equivalent to 7.5 g per 10 ares. The test was conducted in duplicate for each chemical concentration group, and the herbicidal effect was evaluated 14 days after chemical application using the same criteria as in Test Example 1.

[3] = test system: Echinochloa crus-galli var. formosensis; experiment: Test Example 5: herbicidal effect test by soil application in paddy rice (low dose); conditions: Echinochloa crus-galli, soil, 336 h; 7.5 g per 10 ares; applied immediately after sowing, flooded pots; 14 days after application; read-out: weed inhibition rate
Procedure, shortened: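 Paddy-soil pots, weeds sown 0–1 cm deep and flooded to about 3 cm in a greenhouse. Emulsifiable concentrate diluted in water and dropped in right after sowing at 7.5 g active ingredient per 10 ares. Duplicates; effect scored 14 days after application.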

[4] = test system: Echinochloa crus-galli var. formosensis; experiment: Test Example 2: herbicidal effect test by application during growth period of paddy rice; conditions: Echinochloa crus-galli; 120 g per 10 ares; applied seven days after sowing, flooded pots; 14 days after application; read-out: weed inhibition rate
Procedure, shortened: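 Paddy soil in flooded pots (water depth about 3 cm) was sown with weed seeds and kept in a glass greenhouse. Seven days after sowing, a diluted emulsifiable concentrate was applied by dropper at 120 g active ingredient per 10 ares. Weed inhibition was evaluated 14 days after application, in duplicate.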

Echinochloa crus-galli [5] = experiment: Test Example 8: herbicidal effect test by stem and leaf treatment in upland field (low dose); conditions: Echinochloa crus-galli; 7.5 g per 10 ares; sprayed seven days after sowing, upland soil; 14 days after application; read-out: weed inhibition rate
Method: as §1
(§2) Pots with an area of 36 cm^2 were filled with upland soil (alluvial loam), twenty seeds each of weeds of Digitaria ciliaris, and Echinochloa crus-galli were uniformly mixed with the top 1 cm layer of soil and the surface was lightly pressed down. Seven days after sowing, an emulsifiable concentrate prepared according to Formulation Example 5 using the compound shown below was diluted with water, and the diluted solution was sprayed onto the soil surface at a rate of 100 liters per 10 ares. The amount of the active ingredient to be applied was equivalent to 7.5 g per 10 ares. Fourteen days after chemical application, the herbicidal effect was evaluated according to the same criteria as in Test Example 1.

Digitaria ciliaris [6] = experiment: as above; conditions: Digitaria ciliaris; 7.5 g per 10 ares; sprayed seven days after sowing, upland soil; 14 days after application; read-out: weed inhibition rate
Method: as §1, §2

Digitaria ciliaris [7] = experiment: Test Example 4: herbicidal effect test by stem and leaf treatment in upland field; conditions: Digitaria ciliaris; 120 g per 10 ares; sprayed seven days after sowing, upland soil; 14 days after application; read-out: weed inhibition rate
[8] = test system: Echinochloa crus-galli var. formosensis; experiment: Test Example 1: herbicidal effect test by soil application in paddy rice; conditions: Echinochloa crus-galli, soil, 336 h; 120 g active ingredient per 10 ares; applied immediately after sowing, flooded pots; 14 days after application; read-out: weed inhibition rate
Procedure, shortened: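 Weeds sown 0–1 cm deep (30 seeds each) into fertilized, puddled paddy soil in Wagner pots. Pots are flooded immediately, water held near 3 cm, and the diluted emulsifiable concentrate is dripped in at once, delivering 120 g active ingredient per 10 ares under glass-greenhouse management.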

Echinochloa crus-galli [9] = experiment: Test Example 7: herbicidal effect test by soil application in upland field (low dose); conditions: Echinochloa crus-galli, 7.5 g per 10 ares, sprayed one day after sowing, 14 days after application, read-out: weed inhibition rate
Method: as §1
as §2, with “One day” for “Seven days”

Digitaria ciliaris [10] = experiment: as above; conditions: Digitaria ciliaris, 7.5 g per 10 ares, sprayed one day after sowing, 14 days after application, read-out: weed inhibition rate
Method: as §1
as §2, with “One day” for “Seven days”

Echinochloa crus-galli [11] = experiment: Test Example 3: herbicidal effect test by soil application in upland field; conditions: Echinochloa crus-galli, 120 g per 10 ares, sprayed one day after sowing, 14 days after application, read-out: weed inhibition rate
Procedure, shortened: (§3)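 Pre-emergence test: seeds mixed into top 1 cm of alluvial loam upland soil in pots; emulsifiable concentrate diluted in water sprayed on soil one day after sowing at 100 L/10 a, 120 g a.i./10 a. Weed inhibition rate (%) scored at 14 days, in duplicate.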

Digitaria ciliaris [12] = experiment: as above; conditions: Digitaria ciliaris, 120 g per 10 ares, sprayed one day after sowing, 14 days after application, read-out: weed inhibition rate
Procedure, shortened: as §3

COc1ccccc1CO[C@@H]1C[C@]2(C(C)C)O[C@@]1(C)C[C@@H]2Br [1-18, (1S,2R,4R,5S)-5-bromo-2-[(2-methoxyphenyl)methoxy]-1-methyl-4-isopropyl-7-oxabicyclo[2.2.1]heptane]
≥ 80%: inhibition at 1200 g/ha (Echinochloa crus-galli [1]) | inhibition at 75 g/ha [2] | inhibition at 75 g/ha [3] | inhibition at 1200 g/ha [4] | inhibition at 75 g/ha (Echinochloa crus-galli [5]) | inhibition at 75 g/ha (Digitaria ciliaris [6]) | inhibition at 1200 g/ha (Digitaria ciliaris [7]) | pest or weed control at 1200 g/ha [8]

CCc1ccccc1CO[C@@H]1C[C@]2(C(C)C)O[C@@]1(C)C[C@@H]2Br [1-682, (1S,2R,4R,5S)-5-bromo-2-[(2-ethylphenyl)methoxy]-1-methyl-4-isopropyl-7-oxabicyclo[2.2.1]heptane]
≥ 80%: inhibition at 1200 g/ha (Echinochloa crus-galli [1]) | inhibition at 75 g/ha [2] | inhibition at 75 g/ha [3] | inhibition at 1200 g/ha [4] | inhibition at 75 g/ha (Echinochloa crus-galli [9]) | inhibition at 75 g/ha (Digitaria ciliaris [10]) | inhibition at 75 g/ha (Echinochloa crus-galli [5]) | inhibition at 75 g/ha (Digitaria ciliaris [6]) | inhibition at 1200 g/ha (Echinochloa crus-galli [11]) | inhibition at 1200 g/ha (Digitaria ciliaris [12]) | inhibition at 1200 g/ha (Digitaria ciliaris [7]) | pest or weed control at 1200 g/ha [8]

CC(C)[C@]12C[C@@H](OCc3ccccn3)[C@](C)(C[C@@H]1Br)O2 [1-718, 2-[[(1S,2R,4R,5S)-5-bromo-1-methyl-4-isopropyl-7-oxabicyclo[2.2.1]heptan-2-yl]oxymethyl]pyridine]
≥ 80%: inhibition at 1200 g/ha (Echinochloa crus-galli [1]) | inhibition at 75 g/ha [2] | inhibition at 75 g/ha [3] | inhibition at 1200 g/ha [4] | inhibition at 75 g/ha (Echinochloa crus-galli [9]) | inhibition at 75 g/ha (Digitaria ciliaris [10]) | inhibition at 75 g/ha (Echinochloa crus-galli [5]) | inhibition at 75 g/ha (Digitaria ciliaris [6]) | inhibition at 1200 g/ha (Echinochloa crus-galli [11]) | inhibition at 1200 g/ha (Digitaria ciliaris [12]) | inhibition at 1200 g/ha (Digitaria ciliaris [7]) | pest or weed control at 1200 g/ha [8]

Cc1ccccc1COC1CC2(C(C)C)OC1(C)CC2Br (stereo not shown) [1-1343, 5-bromo-1-methyl-2-[(2-methylphenyl)methoxy]-4-isopropyl-7-oxabicyclo[2.2.1]heptane]
≥ 80%: inhibition at 1200 g/ha (Echinochloa crus-galli [1]) | inhibition at 75 g/ha [2] | inhibition at 75 g/ha [3] | inhibition at 1200 g/ha [4] | inhibition at 75 g/ha (Echinochloa crus-galli [9]) | inhibition at 75 g/ha (Digitaria ciliaris [10]) | inhibition at 75 g/ha (Echinochloa crus-galli [5]) | inhibition at 75 g/ha (Digitaria ciliaris [6]) | inhibition at 1200 g/ha (Echinochloa crus-galli [11]) | inhibition at 1200 g/ha (Digitaria ciliaris [12]) | inhibition at 1200 g/ha (Digitaria ciliaris [7]) | pest or weed control at 1200 g/ha [8]

CC(C)C12CC(OCc3c(F)cccc3Br)C(C)(CC1Br)O2 (stereo not shown) [1-1598, 5-bromo-2-[(2-bromo-6-fluorophenyl)methoxy]-1-methyl-4-isopropyl-7-oxabicyclo[2.2.1]heptane]
≥ 80%: inhibition at 1200 g/ha (Echinochloa crus-galli [1]) | inhibition at 75 g/ha [2] | inhibition at 75 g/ha [3] | inhibition at 1200 g/ha [4] | inhibition at 75 g/ha (Echinochloa crus-galli [9]) | inhibition at 75 g/ha (Digitaria ciliaris [10]) | inhibition at 75 g/ha (Echinochloa crus-galli [5]) | inhibition at 75 g/ha (Digitaria ciliaris [6]) | inhibition at 1200 g/ha (Echinochloa crus-galli [11]) | inhibition at 1200 g/ha (Digitaria ciliaris [12]) | pest or weed control at 1200 g/ha [8]
